Data from PMC11843613, “Further Optimization of the mGlu1 PAM VU6024578/BI02982816: Discovery and Characterization of VU6033685” (ACS Chemical Neuroscience, 2025).
Several values for one entry are separate records, joined by “and”; a condition that tells them apart may be missing. Equal entries are not always repeated.

Legend:
human mGlu1 = target: T1, human mGlu1 (Homo sapiens, UniProt Q13255); test: mGlu1 PAM calcium mobilization assay (human); type: cell-based; conditions: for fold increase in mGlu1 PAM potency over 5: human mGlu1 EC50 ratio versus 5
T1 construct: expressed in transfected cells; pcDNA5/TO)
T1 sequence (Q13255 19-1194): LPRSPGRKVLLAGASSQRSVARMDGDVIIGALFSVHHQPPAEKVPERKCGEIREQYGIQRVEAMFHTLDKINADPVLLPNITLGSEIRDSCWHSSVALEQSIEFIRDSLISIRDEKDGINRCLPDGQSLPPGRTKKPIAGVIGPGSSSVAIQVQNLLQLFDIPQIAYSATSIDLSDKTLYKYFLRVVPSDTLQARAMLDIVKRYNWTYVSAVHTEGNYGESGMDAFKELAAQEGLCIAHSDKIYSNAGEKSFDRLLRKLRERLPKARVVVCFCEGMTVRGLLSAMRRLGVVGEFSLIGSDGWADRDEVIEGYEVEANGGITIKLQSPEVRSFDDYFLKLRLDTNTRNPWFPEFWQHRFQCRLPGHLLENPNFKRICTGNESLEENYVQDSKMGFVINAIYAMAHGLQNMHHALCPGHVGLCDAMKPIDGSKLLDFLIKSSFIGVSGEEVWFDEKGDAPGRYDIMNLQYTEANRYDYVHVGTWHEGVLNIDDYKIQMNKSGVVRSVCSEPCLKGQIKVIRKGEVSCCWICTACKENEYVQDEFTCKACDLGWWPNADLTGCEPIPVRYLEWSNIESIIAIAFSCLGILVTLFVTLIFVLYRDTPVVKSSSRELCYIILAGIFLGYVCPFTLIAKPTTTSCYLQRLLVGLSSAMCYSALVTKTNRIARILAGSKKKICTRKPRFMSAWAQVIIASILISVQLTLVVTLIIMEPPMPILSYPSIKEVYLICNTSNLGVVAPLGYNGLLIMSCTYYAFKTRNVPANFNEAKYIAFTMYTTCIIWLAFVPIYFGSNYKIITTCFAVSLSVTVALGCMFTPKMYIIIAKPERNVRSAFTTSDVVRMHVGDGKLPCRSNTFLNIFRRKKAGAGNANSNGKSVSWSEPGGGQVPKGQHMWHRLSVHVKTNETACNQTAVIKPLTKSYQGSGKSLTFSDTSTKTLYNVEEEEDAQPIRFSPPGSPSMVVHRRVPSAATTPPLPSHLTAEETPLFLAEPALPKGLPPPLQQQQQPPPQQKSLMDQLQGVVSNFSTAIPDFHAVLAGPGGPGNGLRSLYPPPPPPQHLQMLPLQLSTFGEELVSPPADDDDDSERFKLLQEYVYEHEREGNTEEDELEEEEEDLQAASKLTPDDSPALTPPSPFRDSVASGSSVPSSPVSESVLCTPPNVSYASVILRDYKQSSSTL
Text: Molecular Pharmacology. Tetracycline-tested fetal bovine serum (FBS) was purchased from Atlanta Biologicals (Lawrenceville, GA), and all other tissue culture reagents and Fluo-4-acetoxymethylester (Fluo-4-AM) were purchased from Life Technologies (Carlsbad, CA).
Tetracycline hydrochloride (Sigma), L-glutamic acid (Tocris, Minneapolis, MN), and (S)-3,5-dihydroxyphenylglycine (DHPG) (Abcam, Cambridge, MA). EZ-Link Sulfo-NHS-SS-Biotin and NeutrAvidin agarose beads (Pierce Biotechnology, Rockford, IL).
Cell Culture and Mutagenesis. Tetracycline-inducible human mGlu 1 WT-T-RExTM-293 cells (Wu et al, Science 2014) were cultured at 37 °C in Dulbecco’s Modified Eagle Medium (DMEM) growth medium containing 10% Tet-tested FBS, 2 mM L-glutamine, 20 mM HEPES, 0.1 mM non-essential amino acids, 1 mM sodium pyruvate, antibiotic/antimycotic, 100 µg/mL hygromycin and 5 µg/mL blasticidin in the presence of 5% CO 2. […]
Calcium Mobilization Assay. To determine the potency of mGlu 1 PAMs in calcium assays, Ca flux was measured as previously described in ACS Chem. Bio. 2014, 9, 2334-2346. Briefly, the day before the assay, human mGlu1 WT-T-RExTM-293 cells were plated in black-walled, clear-bottomed, poly-D-lysine coated 96-well plates at 80,000 cells/100 µL assay medium (DMEM supplemented with 10% dialyzed FBS, 20 mM HEPES, and 1 mM sodium pyruvate) containing 50 ng/mL of tetracycline to induce mGlu1 expression. The next day, media was removed and the cells were incubated with 50 µL of 1.15 µM Fluo-4 AM dye solution prepared in assay buffer (buffer (Hank’s balanced salt solution, 20 mM HEPES, and 2.5 mM probenecid) for 45 min at 37 °C, the dye was removed and replaced with 45 µL of assay buffer. Then, calcium flux was measured using Flexstation II (Molecular Devices, Sunnyvale, CA). Compounds serially diluted […]
at half log concentrations in DMSO were further diluted in assay buffer. The compounds or DMSO vehicle were added to cells and incubated for 2.5 min and an EC20 concentration of glutamate was added and incubated for 1 min. An ECmax concentration of glutamate was also added to cells that were incubated with DMSO vehicle to accurately calculate the EC20 calcium response. Data were normalized by subtracting the basal florescent peak before EC20 agonist addition from the maximal peak elicited by EC20 agonist and PAMs. Using GraphPad Prism 5.0, the concentration response curves were generated and the potencies of the mGlu1 PAMs were determined. […]

CYP450 2D6 = target: T2, CYP450 2D6 (Homo sapiens, UniProt P10635); test: Inhibition of cytochrome P450 enzymes in human liver microsomes, 2D6; type: in vitro ADME
T2 construct: 0.1 mg/mL human liver microsomes (HLM); from tissue; host or cells: human liver microsomes
T2 sequence (P10635 whole entry): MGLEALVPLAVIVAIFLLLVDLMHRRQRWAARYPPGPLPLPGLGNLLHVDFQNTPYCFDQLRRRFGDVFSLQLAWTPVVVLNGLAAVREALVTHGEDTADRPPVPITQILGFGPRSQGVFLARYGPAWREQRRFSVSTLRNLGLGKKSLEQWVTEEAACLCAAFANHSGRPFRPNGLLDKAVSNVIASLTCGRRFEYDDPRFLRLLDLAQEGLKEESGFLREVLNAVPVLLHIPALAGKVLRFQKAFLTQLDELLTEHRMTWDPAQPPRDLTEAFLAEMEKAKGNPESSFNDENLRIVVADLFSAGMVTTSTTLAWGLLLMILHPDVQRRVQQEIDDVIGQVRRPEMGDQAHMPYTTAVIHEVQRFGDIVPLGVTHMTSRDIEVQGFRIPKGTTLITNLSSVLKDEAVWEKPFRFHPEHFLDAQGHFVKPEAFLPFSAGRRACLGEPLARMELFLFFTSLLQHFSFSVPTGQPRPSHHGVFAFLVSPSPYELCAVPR
Experimental: (§1) Inhibition of Cytochrome P450 Enzymes: A cocktail of substrates for cytochrome P450 enzymes (1A2: Phenacetin, 10 µM; 2C9: Diclofenac, 5 µM; 2D6: Dextromethorphan, 5 µM; 3A4:
(§2) Midazolam, 2 µM) were mixed for cocktail analysis. For P450 2C19, the substrate stock (Mephenytoin, 40 µM )and substrate mix were prepared separately for discrete analysis. The […]
(§3) positive control for pan-P450 inhibition (miconazole) was included alongside each test compound […]
(§4) A reaction mixture of 100 mM Kpi, pH 7.4, 0.1 mg/mL human liver microsomes (HLM) and Substrate Mix is prepared and aliquoted into a 96-deepwell block. Test compound and positive control (in duplicate) were then added such that the final concentration of test compound ranged from 0.1 – 30 µM. The plate was vortexed briefly and then pre-incubated at 37 °C while shaking for 15 minutes. The reaction was initiated with the addition of NADPH (1 mM final concentration). The incubation continued for 8 min and the reaction quenched by 2x volume of cold acetonitrile containing internal standard (50 nM carbamazepine). The plate was centrifuged for 10 minutes (4000 rcf, 4°C) and the resulting supernatant diluted 1:1 with water for LC/MS/MS analysis. A 12 point standard curve of substrate metabolites over the range of 0.98 nM to 2000 […]
(§5) Samples were analyzed via electrospray ionization (ESI) on an AB Sciex API-4000 (Foster City, CA) triple-quadrupole instrument that was coupled with Shimadzu LC-10AD pumps (Columbia, MD) and a Leap Technologies CTC PAL auto-sampler (Carrboro, NC). Analytes were separated by gradient elution using a Fortis C18 3.0 x 50 mm, 3 µm column (Fortis Technologies Ltd, Cheshire, UK) thermostated at 40°C. HPLC mobile phase A was 0.1% formic acid in water (pH unadjusted), mobile phase B was 0.1% formic acid in acetonitrile (pH unadjusted). The gradient […]
(§6) 90% B for 0.1 min and returned to 10% B in 0.1 min followed by a re-equilibration (0.9 min). The total run time was 2.5 min and the HPLC flow rate was 0.5 mL/min. The source temperature was set at 500°C and mass spectral analyses were performed using multiple reaction monitoring (MRM), with transitions specific for each compound utilizing a Turbo-Ionspray® source in positive ionization mode (5.0 kV spray voltage).
(§7) The IC50 values for each compound were obtained for the individual CYP enzymes by quantitating the inhibition of metabolite formation for each probe substrate. A 0 µM compound condition (or control) was set to 100% enzymatic activity and the effect of increasing test compound concentrations on enzymatic activity could then be calculated from the % of control activity.
(§8) Curves were fitted using XLfit 5.2.2 (four-parameter logistic model, equation 201) to determine the concentration that produces half-maximal inhibition (IC50).

CYP450 1A2 = target: T3, CYP450 1A2 (Homo sapiens, UniProt P05177); test: Inhibition of cytochrome P450 enzymes in human liver microsomes, 1A2; type: in vitro ADME
T3 construct: 0.1 mg/mL human liver microsomes (HLM); from tissue; host or cells: human liver microsomes
T3 sequence (P05177 1-516): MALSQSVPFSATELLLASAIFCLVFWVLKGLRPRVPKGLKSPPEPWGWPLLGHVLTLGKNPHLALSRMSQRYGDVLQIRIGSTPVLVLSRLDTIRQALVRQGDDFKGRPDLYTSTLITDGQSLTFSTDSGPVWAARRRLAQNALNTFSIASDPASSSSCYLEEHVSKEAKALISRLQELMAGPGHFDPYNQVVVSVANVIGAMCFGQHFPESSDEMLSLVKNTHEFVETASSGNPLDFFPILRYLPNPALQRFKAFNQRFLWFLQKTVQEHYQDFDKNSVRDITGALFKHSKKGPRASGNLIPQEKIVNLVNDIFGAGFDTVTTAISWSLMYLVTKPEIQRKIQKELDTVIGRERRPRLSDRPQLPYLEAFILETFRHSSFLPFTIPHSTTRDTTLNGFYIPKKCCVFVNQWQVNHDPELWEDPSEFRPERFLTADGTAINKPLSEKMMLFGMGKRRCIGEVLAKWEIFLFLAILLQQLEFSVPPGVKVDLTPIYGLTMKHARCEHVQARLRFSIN
Experimental: as §1, §2, §3, §4, §5, §6, §7, §8

| EC50 (human mGlu1) | human mGlu1 Glu Max (human mGlu1) [%] | IC50 (CYP450 2D6) [µM] | IC50 (CYP450 1A2) [µM] | Structure (SMILES) | fold increase in mGlu1 PAM potency over 5 (human mGlu1) [fold] |
| --- | --- | --- | --- | --- | --- |
| 0.028 µM | 72 | > 30 | 14.7 | Cn1cc(-c2cc(CNC(=O)c3cc(-c4ccco4)ccc3Cl)n(C)n2)cn1 [compound 4] | – |
| 0.527 µM and 0.551 µM | 76 | > 30 | > 30 | Cn1nc(-c2ccnn2C)cc1CNC(=O)c1cc(-n2cccn2)ccc1Cl [compound 5] | – |
| 0.032 µM | 56 | 6.9 | 15.9 | Cc1nc2ccccc2cc1CNC(=O)c1cc(-n2cccn2)ccc1Cl [compound 6] | – |
| 0.017 µM | 56 | > 30 | 11.2 | Cc1nc2c(F)cccc2cc1CNC(=O)c1cc(-n2cccn2)ccc1Cl [compound 7] | ~31 |

| Structure (SMILES) | EC50 (human mGlu1) | human mGlu1 Glu Max (human mGlu1) [%] | IC50 (CYP450 2D6) [µM] | IC50 (CYP450 1A2) [µM] | fold increase in mGlu1 PAM potency over 5 (human mGlu1) [fold] |
| --- | --- | --- | --- | --- | --- |
| Cc1nc(C2CC2)ccc1CNC(=O)c1cc(-n2cccn2)ccc1Cl [compound 8] | 0.039 µM | 65 | > 30 | 26 | ~14 |
